Measured values as given in article PMC10439028, “SGLT5 is the renal transporter for 1,5-anhydroglucitol, a major player in two rare forms of neutropenia” (Cellular and Molecular Life Sciences: CMLS, 2023).

Target: T1, SGLT5-TM (S70N–E71I–L75H) (Homo sapiens, UniProt A0PJK1, E71I/L75H/S70N)
T1 construct: pUB83-hSGLT5-iso2 as well as the various SGLT5 mutants obtained were used to transduce HEK293T cells; expressed in transfected cells; host or cells: HEK293T, lentiviral transduction (pUB83)
Experiment: Inhibition of 10 µM 1,5-AG transport by triple mutant SGLT5-TM (S70N-E71I-L75H)
Type: cell-based
Procedure: The transport experiments to study the specificity of SGLT4 or SGLT5, were performed in the presence of 10 µM U-[^14C + ^12C]-mannose (for SGLT4) or 2-[^3H + ^1H]-1,5-AG (for SGLT5) and increasing concentrations of various sugars tested. The transport experiments to study the inhibition of empagliflozin, dapagliflozin or remogliflozin, on the transport of 1,5-AG by SGLT5 or its variants were performed in the presence of 10 µM 2-[^3H + ^1H]-1,5-AG and increasing concentrations of the various gliflozins tested.
SGLT5 mutants were created using the quick-change site directed mutagenesis method that enables effective mutagenesis without subcloning of the amplified PCR products. Complementary primer pairs carrying the desired replacements (Supplementary Table 3) were designed using an online tool (https://www.agilent.com/store/primerDesignProgram.jsp). The PCR protocol was carried out following the manufacturer instructions regarding the KOD HOT Start polymerase kit (TOYOBO™, Novagen). The amplified DNA was cleaned-up from the reactions constituents using the GeneJET PCR purification Kit (Thermo Scientific™) and the size of the DNA fragment were verified by DNA agarose-gel electrophoresis. After eliminating the parental DNA by digesting the purified DNA with the DpnI restriction enzyme, the DNA fragments containing the appropriate changes were transformed in E. coli NEB Turbo competent cells (C2984H). Once colonies were obtained, plasmid DNA was finally amplified, purified and sequenced to verify that the required changes had been introduced and eliminate any PCR errors. Next, pUB83-hSGLT5-iso2 as well as the various SGLT5 mutants obtained were used to transduce HEK293T cells using the exact same protocol as described above to create model cell lines overexpressing the different SGLT5 transporters.
Supplementary Fig. 7: Substrate specificity of SGLT5 - impact of replacing specific and conserved substrate binding residues in human SGLT5 by the equivalent ones in […]
When shown, the IC50 values are derived from inhibition curves showing the transport activity of 1,5-AG by the indicated SGLT5 mutants. Values show the concentration needed of the various sugars to inhibit by 50% the transport activity of 10 µM 2-[1H+3H]-1,5-AG. When the inhibition was too weak to derive IC50 values, the inhibition of the transport of 1,5-AG with the indicated concentration of the inhibitor-sugar is shown. Of note, despite having a lower […]
µM). These apparently contradictory changes are not necessarily surprising: in the case of enzymes, there are multiple examples of mutations that, at the same time, increase the apparent affinity (decrease the Km) of an enzyme for its substrate while decreasing the Vmax.
Measurement of transport activities and the description of the structures of the various inhibitory sugars used are as in Fig. 3C. Data corresponds to n = 3 in at least 2 independent […]
(1 picture or pasted object on this page, not shown here)

T1 sequence (A0PJK1 whole entry S70N/E71I/L75H): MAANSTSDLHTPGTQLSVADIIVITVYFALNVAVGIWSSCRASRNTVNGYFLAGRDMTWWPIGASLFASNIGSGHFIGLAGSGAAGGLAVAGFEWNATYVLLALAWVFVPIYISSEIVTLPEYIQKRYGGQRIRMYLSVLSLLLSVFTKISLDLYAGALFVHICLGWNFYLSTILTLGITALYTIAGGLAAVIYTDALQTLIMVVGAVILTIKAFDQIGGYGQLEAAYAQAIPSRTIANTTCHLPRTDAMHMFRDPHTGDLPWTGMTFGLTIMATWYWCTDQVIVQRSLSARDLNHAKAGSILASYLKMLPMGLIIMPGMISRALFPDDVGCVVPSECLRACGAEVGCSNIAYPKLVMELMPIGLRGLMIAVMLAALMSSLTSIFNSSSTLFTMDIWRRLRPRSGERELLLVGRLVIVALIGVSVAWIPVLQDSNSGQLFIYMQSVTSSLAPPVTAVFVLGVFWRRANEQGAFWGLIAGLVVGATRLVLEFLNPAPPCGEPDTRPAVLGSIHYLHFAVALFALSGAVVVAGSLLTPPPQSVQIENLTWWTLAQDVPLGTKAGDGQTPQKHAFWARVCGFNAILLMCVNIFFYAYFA

Row | Structure (SMILES) | IC50 for 1,5-AG lower than the IC50 for SGLT5-WT (33 µM versus 162 µM) | inhibition of SGLT5-TM (competition experiments, Supplementary Fig. 7) | loss of affinity of SGLT5-TM (versus wild-type SGLT5, competition experiments, Supplementary Fig. 7)
1 | OC[C@H]1OC[C@H](O)[C@@H](O)[C@@H]1O [1,5-AG, 1,5-anhydroglucitol] | 5 fold | still being inhibited | 
2 | OC[C@H]1OC(O)[C@@H](O)[C@@H](O)[C@@H]1O (stereo partly drawn) [Mannose, mannose] |  |  | tenfold
